Laboratory results from patent publication US8613927B2, “High affinity human antibodies to human nerve growth factor” (Regeneron Pharmaceuticals, Inc., priority 2007, dated 2013).
Like-named read-outs stand apart in the source and are kept apart here.

Key:
[1] = molecular target: T1, human NT-3 binding to human TrkC-hFc (Homo sapiens, UniProt P20783); assay: BIACORE, NT-3 binding to TrkC-hFc surface in presence of antibody; details: 20 nM NT-3 + 500 nM sample; normalized to IgG1 control
T1 sequence (P20783 139-257): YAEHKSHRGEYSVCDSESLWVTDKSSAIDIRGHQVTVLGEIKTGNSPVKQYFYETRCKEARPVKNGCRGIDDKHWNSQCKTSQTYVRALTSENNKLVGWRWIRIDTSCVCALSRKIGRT
Procedure: (§1) Human TrkA-hFc (9300 RU), human TrkB-hFc (6000 RU), human TrkC-hFc (9100 RU) and human p75-hFc (7500 RU) were covalently coupled to BIACORE® CM5 chip surfaces by amine-coupling procedure. […] The binding mixture was first incubated at room temperature to reach equilibrium (about 1 hr) and then was injected over the above TrkA-hFc, TrkB-hFc, TrkC-hFc and p75-hFc surfaces. The level of human NT-3 binding in each sample was measured. The binding RU from each sample mixture was normalized according to the RU value from the negative control sample (i.e., 20 nM human NT-3 with 500 nM AVASTIN®) and presented as % binding to Trk surfaces (Table 9).

C57BL/6 male mice = assay: Seltzer model of neuropathic pain, Hargreaves' test; type: in vivo, mouse
Text: Neuropathic pain. The mouse Seltzer model of neuropathic pain (Malmberg et al. (1998) Pain 76:215-222) was used with C57BL/6 male mice, in which a partial nerve injury was produced by tying a tight ligature with a 7-0 silk suture around approximately ⅓ to ½ the diameter of the sciatic nerve of one single thigh per mouse. Post-surgery, the mice were allowed to recover for at least two days and then they were studied for several weeks post-surgery for thermal hyperalgesia in the Hargreaves' test. Controls were sham-operated mice in which the sciatic nerve was exposed and elevated but not tied. Following surgery, the mice were tested at day […] and at day 7 post-surgery to confirm that the thermal hyperalgesia had developed.
Following the Seltzer surgery, mice were tested at days 5 and 7 post-surgery to confirm that the thermal hyperalgesia had developed.

[2] = molecular target: T2, human NT-3 binding to human TrkA-hFc (Homo sapiens, UniProt P20783); assay: BIACORE, NT-3 binding to TrkA-hFc surface in presence of antibody; details: 20 nM NT-3 + 500 nM sample; normalized to IgG1 control
T2 sequence (P20783 139-257): T1 sequence (P20783 139-257)
Procedure: as §1

[3] = molecular target: T3, human NT-3 binding to human TrkB-hFc (Homo sapiens, UniProt P20783); assay: BIACORE, NT-3 binding to TrkB-hFc surface in presence of antibody; details: 20 nM NT-3 + 500 nM sample; normalized to IgG1 control
T3 sequence (P20783 139-257): T1 sequence (P20783 139-257)
Procedure: as §1

[4] = molecular target: T4, human NT-3 binding to human p75-hFc (Homo sapiens, UniProt P20783); assay: BIACORE, NT-3 binding to p75-hFc surface in presence of antibody; details: 20 nM NT-3 + 500 nM sample; normalized to IgG1 control
T4 sequence (P20783 139-257): T1 sequence (P20783 139-257)
Procedure: as §1

NGF = NGF (Homo sapiens, UniProt P01138, DEL136-138/DEL208-209); assay: BIACORE surface kinetics, binding affinity for human NGF
Chain of NGF (P01138 with tags, fused parts or gaps DEL136-138/DEL208-209): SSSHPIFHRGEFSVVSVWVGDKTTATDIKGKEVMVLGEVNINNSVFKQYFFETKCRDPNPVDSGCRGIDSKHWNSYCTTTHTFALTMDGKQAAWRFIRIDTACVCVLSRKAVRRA
Procedure: Antigen binding affinities of the antibodies for human NGF were determined by surface kinetics using a real-time biosensor surface plasmon resonance assay (BIACORE™). Antibodies were captured on either a goat, anti-human or anti-mouse IgG polyclonal antibody surface created by direct amine coupling of the capture antibody to a BIACORE™ chip. Various concentrations of human NGF were injected over the captured antibody surfaces while the association of the antigen to the antibody and the dissociation of the bound complex were monitored in real time. Kinetic analysis was performed to obtain the equilibrium dissociation constant (KD) and dissociation rate constant, and the latter was used to calculate the antigen/antibody complex dissociation t1/2 (Table 1).
Antigen binding affinities of selected purified antibodies for NGF were also determined by surface kinetics employing a real-time biosensor surface plasmon resonance assay (BIACORE™) as described above. For convenience, antibody 301272-3H10-A10 was renamed “REGN261” (HCVR/LCVR SEQ ID NOs:84/92 and hIgG1 SEQ ID NO:541); 301272-6E07-D10 was renamed “REGN263” (HCVR/LCVR SEQ ID NO:208/216 and hIgG1 SEQ ID NO:541).

C57BL/6 mice = assay: Post-operative incision pain model, mechanical allodynia in von Frey test; type: in vivo, mouse; details: Table 17
Procedure: Thermal hyperalgesia was studied in the Hargreaves' test and mechanical allodynia was tested in the von Frey test. In this latter test, mice were tested after being acclimated for 2-3 hours for 4 days in an apparatus with a wire mesh floor. The test was performed by applying, in ascending order, a series of von Frey hairs through the wire mesh onto the plantar surface of the hind paw with the incision. A response was considered positive if the paw was raised from the platform in response to application of the filament. Starting from the thinnest hair, each von Frey filament was applied up to five times until a response was observed.

tanezumab [RN624]
% binding to TrkC-hFc surface [1]: 8%
pain relief (C57BL/6 male mice; 50 mg/kg s.c. or i.p. at day 7 post-surgery, p<0.001-0.05): Significant pain relief was observed
mean percent change from Hargreaves baseline (C57BL/6 male mice; Table 25, 50 mg/kg s.c. at day 7, day 5 after surgery): −53.5 ± 6.3%
mean percent change from Hargreaves baseline (C57BL/6 male mice; Table 25, 50 mg/kg s.c. at day 7, day 7): −48.4 ± 6.2%
mean percent change from Hargreaves baseline (C57BL/6 male mice; Table 25, 50 mg/kg s.c. at day 7, day 8): 4.5 ± 9.0%
mean percent change from Hargreaves baseline (C57BL/6 male mice; Table 25, 50 mg/kg s.c. at day 7, day 9): −15.2 ± 8.5%
mean percent change from Hargreaves baseline (C57BL/6 male mice; Table 25, 50 mg/kg s.c. at day 7, day 12): −4.2 ± 12.0%
mean percent change from Hargreaves baseline (C57BL/6 male mice; Table 25, 50 mg/kg s.c. at day 7, day 15): 2.1 ± 10.9%
mean percent change from Hargreaves baseline (C57BL/6 male mice; Table 25, 50 mg/kg s.c. at day 7, day 19): −11.5 ± 12.1%
mean percent change from Hargreaves baseline (C57BL/6 male mice; Table 25, 50 mg/kg s.c. at day 7, day 22): −5.7 ± 9.5%
mean percent change from Hargreaves baseline (C57BL/6 male mice; Table 25, 50 mg/kg s.c. at day 7 post-surgery, Baseline): 0.0 ± 0.0%
mean percent change from Hargreaves baseline (C57BL/6 male mice; Table 26, 50 mg/kg i.p. at day 7, day 5 after surgery): −56.6 ± 2.3%
mean percent change from Hargreaves baseline (C57BL/6 male mice; Table 26, 50 mg/kg i.p. at day 7, day 7): −62.3 ± 3.4%
mean percent change from Hargreaves baseline (C57BL/6 male mice; Table 26, 50 mg/kg i.p. at day 7, day 8): −3.3 ± 16.0%
mean percent change from Hargreaves baseline (C57BL/6 male mice; Table 26, 50 mg/kg i.p. at day 7, day 9): −18.4 ± 12.9%
mean percent change from Hargreaves baseline (C57BL/6 male mice; Table 26, 50 mg/kg i.p. at day 7, day 12): −7.0 ± 11.8%
mean percent change from Hargreaves baseline (C57BL/6 male mice; Table 26, 50 mg/kg i.p. at day 7, day 15): −16.2 ± 14.8%
mean percent change from Hargreaves baseline (C57BL/6 male mice; Table 26, 50 mg/kg i.p. at day 7 post-surgery, Baseline): 0.0 ± 0.0%
% binding to TrkA-hFc surface [2]: 7%
% binding to TrkB-hFc surface [3]: 8%
% binding to p75-hFc surface [4]: 19%
Kd (NGF; Table 1, read-out: KD): 1.3 pM
Kd (NGF; Table 2, selected purified antibodies, read-out: KD): 1.25 pM
Kd (NGF; Table 5, read-out: Human NGF KD): 1.25 pM
Kd (NGF; Table 6, selected purified antibodies, read-out: NGF KD): 1.25 pM
Paw Withdrawal Threshold (C57BL/6 mice; 25 mg/kg i.p. on day 1 post-surgery, Baseline): 1.314 ± 0.137 g
Paw Withdrawal Threshold (C57BL/6 mice; 25 mg/kg i.p., 5 hr after treatment): 0.083 ± 0.053 g
Paw Withdrawal Threshold (C57BL/6 mice; 25 mg/kg i.p., 22 hr after treatment): 0.610 ± 0.123 g
Paw Withdrawal Threshold (C57BL/6 mice; 25 mg/kg i.p., 45 hr after treatment): 0.909 ± 0.216 g
Paw Withdrawal Threshold (C57BL/6 mice; 25 mg/kg i.p., 70 hr after treatment): 1.143 ± 0.189 g
Paw Withdrawal Threshold (C57BL/6 mice; 25 mg/kg i.p., Day 1 (post-surgery, before injection)): 0.010 ± 0.002 g
